pIC50: −log10 of the molar value. A value given as a limit tells only on which side of the number the result lay.

One experiment addresses T1, ROCK1 kinase (Homo sapiens, UniProt Q13464).
T1 construct: purchased Invitrogen
Description: In vitro evaluation of ROCK1 kinase selectivity (HTRF KinEASE-STK time-resolved fluorometric assay). Format: biochemical. Here is the method:
ROCK1 activity was detected using a 96-well (Cisbio) time-resolved fluorometric assay. The assay for ROCK1 was performed in the following assay buffer: 5 mM MgCl2 (Sigma), 1 mM DTT (Sigma) and 1× kinase buffer. The kinase buffer was used for dilution. 7.5 μL of ROCK1 kinase (Invitrogen) was added to a 96-well microplate to reach a final concentration of 0.4 ng/μL, and then 0.25 μL of test compound (DMSO content: 1%) was added. The mixture was incubated at room temperature for 0.5 h. To start the reaction, the kinase buffer was also used to mix ATP (Aladdin) and the substrate STK-substrate 2-biotin. 7.5 μL of the mixed solution was added to the microplate to reach final concentrations of 3.53 μM and 1 μM. The resulting mixture was incubated for 2 h at room temperature. […] was mixed with STK antibody-Cryptate, and then an appropriate volume of the mixture was mixed with an equal volume of streptavidin-XL665. 10 μL of the resulting mixture was added to stop the reaction. After further incubation for about 1 h, the microplate was read on a Molecular Devices SpectraMax i3x multifunctional microplate reader. The kinase buffer, the STK-substrate 2-biotin, the detection buffer, the STK antibody-Cryptate, and the streptavidin-XL665 were all from HTRF KinEASE-STK kit (Cisbio, 1000 tests, 61[…]).
Background: Time-resolved FRET reads energy transfer from a long-lived donor to a nearby acceptor.

Another experiment deals with T2, ROCK2 kinase (Homo sapiens, UniProt O75116).
T2 construct: purchased Invitrogen PV3759
Description: In vitro evaluation of ROCK2 kinase activity (HTRF KinEASE-STK time-resolved fluorometric assay). Format: biochemical. Here is the method:
ROCK2 activity screening. ROCK2 activity was detected using a 96-well (Cisbio) time-resolved fluorometric assay. The assay for ROCK2 was performed in the following assay buffer: 5 mM MgCl2 (Sigma), 1 mM DTT (Sigma) and 1× kinase buffer. The kinase buffer was used for dilution. 7.5 μL of ROCK2 kinase (Invitrogen, PV3759) was added to a 96-well microplate to reach a final concentration of 0.4 ng/μL, and then 0.25 μL of test compound (DMSO content: 1% (volume fraction)) was added. The mixture was incubated at room temperature for 0.5 h. To start the reaction, the kinase buffer was used to mix ATP (Aladdin) and the substrate STK-substrate 2-biotin. 7.5 μL of the mixed solution was added to the microplate to reach final concentrations of 6.739 μM and 1 μM. The resulting mixture was incubated for 2 h at room temperature. 5 mL of detection buffer was mixed with STK antibody-Cryptate, and then an appropriate volume of the mixture was mixed with an equal volume of streptavidin-XL665. 10 μL of the resulting mixture was added to the microplate to stop the reaction. After further incubation for about 1 h, the microplate was read on a Molecular Devices SpectraMax i3x multifunctional microplate reader. The kinase buffer, the STK-substrate 2-biotin, the detection buffer, the STK antibody-Cryptate, and the streptavidin-XL665 were all from HTRF KinEASE-STK kit (Cisbio, 1000 tests, 61[…]).

T1 sequence (Q13464 whole entry): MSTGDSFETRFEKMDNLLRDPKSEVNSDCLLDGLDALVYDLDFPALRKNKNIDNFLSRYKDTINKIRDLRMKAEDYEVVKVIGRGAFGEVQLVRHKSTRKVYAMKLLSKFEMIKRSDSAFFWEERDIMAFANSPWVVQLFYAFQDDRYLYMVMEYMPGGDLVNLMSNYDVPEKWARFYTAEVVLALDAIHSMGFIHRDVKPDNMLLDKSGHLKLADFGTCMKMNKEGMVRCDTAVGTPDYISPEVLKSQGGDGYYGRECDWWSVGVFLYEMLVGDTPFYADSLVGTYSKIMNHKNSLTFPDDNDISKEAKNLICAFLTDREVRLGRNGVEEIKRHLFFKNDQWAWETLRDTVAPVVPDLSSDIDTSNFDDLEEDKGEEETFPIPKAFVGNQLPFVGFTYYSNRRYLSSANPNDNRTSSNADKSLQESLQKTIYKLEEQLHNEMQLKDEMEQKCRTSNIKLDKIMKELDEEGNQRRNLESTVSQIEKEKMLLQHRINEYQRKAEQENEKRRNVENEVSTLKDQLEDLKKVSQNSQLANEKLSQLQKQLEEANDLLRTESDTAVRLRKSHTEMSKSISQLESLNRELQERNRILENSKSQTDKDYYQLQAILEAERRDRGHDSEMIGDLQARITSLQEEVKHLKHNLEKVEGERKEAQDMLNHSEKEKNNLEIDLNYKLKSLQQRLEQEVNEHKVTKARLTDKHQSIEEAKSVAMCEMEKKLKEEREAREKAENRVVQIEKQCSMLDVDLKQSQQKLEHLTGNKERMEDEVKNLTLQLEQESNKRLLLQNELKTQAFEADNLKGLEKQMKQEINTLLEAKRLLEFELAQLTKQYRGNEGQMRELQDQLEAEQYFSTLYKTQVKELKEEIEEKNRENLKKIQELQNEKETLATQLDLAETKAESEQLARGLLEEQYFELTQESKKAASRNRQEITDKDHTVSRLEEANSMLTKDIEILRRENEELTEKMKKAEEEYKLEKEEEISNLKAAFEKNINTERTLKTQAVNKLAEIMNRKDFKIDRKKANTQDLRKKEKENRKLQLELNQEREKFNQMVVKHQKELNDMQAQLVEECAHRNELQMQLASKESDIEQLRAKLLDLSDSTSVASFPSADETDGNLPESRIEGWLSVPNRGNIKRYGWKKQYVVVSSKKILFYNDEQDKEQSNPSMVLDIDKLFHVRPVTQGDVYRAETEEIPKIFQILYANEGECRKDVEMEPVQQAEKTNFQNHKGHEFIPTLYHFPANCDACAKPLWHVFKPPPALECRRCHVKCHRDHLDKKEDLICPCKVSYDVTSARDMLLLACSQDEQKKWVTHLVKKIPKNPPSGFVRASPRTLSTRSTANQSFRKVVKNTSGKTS
T2 sequence (O75116 whole entry): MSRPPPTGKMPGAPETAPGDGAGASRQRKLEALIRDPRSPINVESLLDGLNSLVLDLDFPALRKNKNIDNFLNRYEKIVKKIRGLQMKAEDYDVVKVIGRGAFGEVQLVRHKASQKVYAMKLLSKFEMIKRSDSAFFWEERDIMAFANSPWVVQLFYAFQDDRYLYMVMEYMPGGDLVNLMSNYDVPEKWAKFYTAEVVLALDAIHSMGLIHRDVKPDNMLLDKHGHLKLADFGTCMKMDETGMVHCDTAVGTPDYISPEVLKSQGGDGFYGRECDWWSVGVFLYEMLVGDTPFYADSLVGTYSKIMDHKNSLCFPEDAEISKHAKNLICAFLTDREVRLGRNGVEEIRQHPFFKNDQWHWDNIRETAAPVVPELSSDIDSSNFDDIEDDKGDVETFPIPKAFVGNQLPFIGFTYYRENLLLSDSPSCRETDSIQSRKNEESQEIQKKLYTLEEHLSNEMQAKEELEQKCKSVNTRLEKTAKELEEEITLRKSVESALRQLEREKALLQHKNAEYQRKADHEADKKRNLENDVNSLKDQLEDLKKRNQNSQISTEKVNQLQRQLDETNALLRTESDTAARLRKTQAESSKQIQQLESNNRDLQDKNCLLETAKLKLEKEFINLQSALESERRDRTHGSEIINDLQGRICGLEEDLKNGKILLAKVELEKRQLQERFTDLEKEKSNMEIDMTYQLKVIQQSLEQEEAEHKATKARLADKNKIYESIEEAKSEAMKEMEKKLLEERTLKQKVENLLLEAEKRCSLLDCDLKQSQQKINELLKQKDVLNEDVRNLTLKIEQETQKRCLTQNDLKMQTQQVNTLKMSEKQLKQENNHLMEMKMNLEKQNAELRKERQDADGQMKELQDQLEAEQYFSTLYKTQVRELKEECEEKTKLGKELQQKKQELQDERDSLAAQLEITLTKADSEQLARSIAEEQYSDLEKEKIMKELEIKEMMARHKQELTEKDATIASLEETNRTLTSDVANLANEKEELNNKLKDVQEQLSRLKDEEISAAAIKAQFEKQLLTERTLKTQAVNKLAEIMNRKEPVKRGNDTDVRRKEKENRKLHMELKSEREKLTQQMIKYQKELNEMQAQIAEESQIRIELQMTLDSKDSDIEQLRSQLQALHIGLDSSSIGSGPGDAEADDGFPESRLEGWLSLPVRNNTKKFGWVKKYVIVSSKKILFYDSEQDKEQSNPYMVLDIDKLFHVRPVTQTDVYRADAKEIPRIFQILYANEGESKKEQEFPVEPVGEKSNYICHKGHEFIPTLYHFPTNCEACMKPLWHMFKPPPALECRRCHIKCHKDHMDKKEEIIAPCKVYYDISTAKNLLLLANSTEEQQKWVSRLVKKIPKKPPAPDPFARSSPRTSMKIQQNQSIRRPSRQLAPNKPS

As to `COc1cc(F)cc(C(CN(C)C)NC(=O)N2CCc3cc(-c4c[nH]nc4F)c(F)cc32)c1` (racemic) [Compound T388, (+/−)N-(2-(dimethylamino)-1-(3-fluoro-5-methoxyphenyl)ethyl)-6-fluoro-5-(3-fluoro-1H-pyrazol-4-yl)indoline-1-carboxamide], the negative-log IC50 (pIC50) – broadly, the IC50 on a negative log10 scale, so that one unit is a factor of ten – against ROCK1 kinase was 6.30 to 7.30; against ROCK2 kinase it was at least 7.30.
On the same counts, the results for `O=C(NCc1ccc2[nH]cnc2c1)N1CCc2cc(-c3cn[nH]c3)ccc21` [Compound T247] are 6.30 to 7.30 and 6.30 to 7.30.
On the same counts, the results for `COc1cccc(CCC(=O)N2CCc3cc(-c4c[nH]nc4N)c(F)cc32)c1` [Compound T383] are 5.30 to 6.30 and 5.30 to 6.30.
On the same counts, the results for `COc1cc(F)cc(CNC(=O)N2CCc3cc(-c4cn[nH]c4)c(C#N)cc32)c1` [Compound T353, 6-cyano-N-(3-fluoro-5-methoxybenzyl)-5-(1H-pyrazol-4-yl)indoline-1-carboxamide] are 5.30 to 6.30 and 6.30 to 7.30.
Regarding `COc1cc(F)cc([C@@H](C)NC(=O)c2ncn3cc(-c4cn[nH]c4F)ccc23)c1` [Compound T370, (R)-6-(5-fluoro-1H-pyrazol-4-yl)-N-(1-(3-fluoro-5-methoxyphenyl)ethyl)imidazo[1,5-a]pyridine-1-carboxamide], the pIC50 at ROCK1 kinase and against ROCK2 kinase was at least 7.30 throughout.
For `O=C(NC(c1ccccc1)c1ccccc1)N1CCc2cc(-c3cn[nH]c3)ccc21` [Compound T249], the pIC50 at ROCK1 kinase and at ROCK2 kinase was 5.30 to 6.30 throughout.
As for `COc1cc(CNC(=O)N2CCc3cc(-c4cn[nH]c4)ccc32)ccn1` [Compound T227], the pIC50 against ROCK1 kinase and on ROCK2 kinase was at least 7.30 each time.
Turning to `COc1cc(F)cc(CNC(=O)N2CCc3cc(-c4cn[nH]c4)c(F)cc32)c1` [Compound T225, 6-fluoro-N-(3-fluoro-5-methoxybenzyl)-5-(1H-pyrazol-4-yl)indoline-1-carboxamide], the negative logarithm of the IC50 (pIC50) at ROCK1 kinase and against ROCK2 kinase was at least 7.30 throughout.
In the case of `O=C(NCc1cc(F)cc(OC(F)F)c1)N1CCc2cc(-c3cn[nH]c3)c(F)cc21` [Compound T375, N-(3-(difluoromethoxy)-5-fluorobenzyl)-6-fluoro-5-(1H-pyrazol-4-yl)indoline-1-carboxamide], the negative-log IC50 (pIC50) against ROCK1 kinase is 6.30 to 7.30; on ROCK2 kinase, at least 7.30.
For `COc1cc(F)cc(CNC(=O)N2CCCc3sc(-c4cn[nH]c4)nc32)c1` [Compound T230] the same measures were 6.30 to 7.30 and 6.30 to 7.30.
Consider `CC(C)NC(=O)COc1cc(F)cc([C@@H](CO)NC(=O)N2CCc3cc(-c4cn[nH]c4)c(F)cc32)c1` [Compound T358, (5)-6-fluoro-N-(1-(3-fluoro-5-(2-(isopropylamino)-2-oxoethoxy)phenyl)-2-hydroxyethyl)-5-(1H-pyrazol-4-yl)indoline-1-carboxamide], for which the negative logarithm of the IC50 (pIC50) against ROCK1 kinase and at ROCK2 kinase was at least 7.30 each time.
For `COc1cc(F)cc(CNC(=O)c2ccn3cc(-c4cn[nH]c4)ccc23)c1` [Compound T237], the pIC50 at ROCK1 kinase and on ROCK2 kinase was at least 7.30 each time.
For `COc1cc(F)cc(CNC(=O)N2CCc3c2ccc(-c2cn[nH]c2)c3F)c1` [Compound T372, 4-fluoro-N-(3-fluoro-5-methoxybenzyl)-5-(1H-pyrazol-4-yl)indoline-1-carboxamide], the negative-log IC50 (pIC50) against ROCK1 kinase and against ROCK2 kinase was at least 7.30 throughout.
As to `COc1cc(F)cc(CNC(=O)N2CCc3cc(-c4cn[nH]c4)c(Cl)cc32)c1` [Compound T222, 6-chloro-N-(3-fluoro-5-methoxybenzyl)-5-(1H-pyrazol-4-yl)indoline-1-carboxamide], the pIC50 against ROCK1 kinase and on ROCK2 kinase was at least 7.30 in each case.
On to `CN(C)CCN(Cc1ccccc1)C(=O)N1CCc2cc(-c3cn[nH]c3)ccc21` [Compound T244], for which the pIC50 against ROCK1 kinase and against ROCK2 kinase was 6.30 to 7.30 each time.
Consider `CC(C)CNC(=O)COc1cc(F)cc([C@@H](CO)NC(=O)N2CCc3cc(-c4cn[nH]c4)c(F)cc32)c1` [Compound T367, (S)-6-fluoro-N-(1-(3-fluoro-5-(2-(isobutylamino)-2-oxoethoxy)phenyl)-2-hydroxyethyl)-5-(1H-pyrazol-4-yl)indoline-1-carboxamide], for which the pIC50 against ROCK1 kinase and against ROCK2 kinase was at least 7.30 throughout.
As for `COc1cc(F)cc(CNC(=O)N2CCc3cc(-c4cn[nH]c4)ncc32)c1` [Compound T219], the pIC50 on ROCK1 kinase and at ROCK2 kinase was at least 7.30 throughout.
In the case of `CN(C)Cc1cc(F)cc(CNC(=O)c2ncn3cc(-c4cn[nH]c4)ccc23)c1` [Compound T360, N-(3-((dimethylamino)methyl)-5-fluorobenzyl)-6-(1H-pyrazol-4-yl)imidazo[1,5-a]pyridine-1-carboxamide], the negative-log IC50 (pIC50) against ROCK1 kinase was 5.30 to 6.30; against ROCK2 kinase, 6.30 to 7.30.
For the compound `COc1cc(F)cc(CNC(=O)N2Cc3ccc(-c4cn[nH]c4)cc3C2)c1` [Compound T209, N-(3-fluoro-5-methoxybenzyl)-5-(1H-pyrazol-4-yl)isoindoline-2-carboxamide], the negative-log IC50 (pIC50) against ROCK1 kinase and on ROCK2 kinase was 6.30 to 7.30 in each case.
Regarding `COc1cc(F)cc(CNC(=O)c2nn(C)c3cc(-c4cn[nH]c4)ccc23)c1` [Compound T236], the pIC50 against ROCK1 kinase and against ROCK2 kinase was at least 7.30 each time.
Consider `COc1cc(F)cc(CNC(=O)N2CCc3cc(-c4c[nH]nn4)ccc32)c1` [Compound T217, N-(3-fluoro-5-methoxybenzyl)-5-(1H-1,2,3-triazol-4-yl)indoline-1-carboxamide], for which the pIC50 on ROCK1 kinase and on ROCK2 kinase was 6.30 to 7.30 in each case.
Turning to `COc1cc(F)cc(CNC(=O)N2CCc3cc(-c4c[nH]nc4F)c(F)cc32)c1` [Compound T351, 6-fluoro-5-(3-fluoro-1H-pyrazol-4-yl)-N-(3-fluoro-5-methoxybenzyl)indoline-1-carboxamide], the negative logarithm of the IC50 (pIC50) against ROCK1 kinase and on ROCK2 kinase was at least 7.30 in each case.
As to `COc1cc(F)cc(CNC(=O)N2CCCc3nc(-c4cn[nH]c4)sc32)c1` [Compound T229], the pIC50 against ROCK1 kinase and against ROCK2 kinase was at least 7.30 throughout.
With `O=C(NCC1CC1)c1cccc(CNC(=O)N2CCc3cc(-c4cn[nH]c4)c(F)cc32)c1` [Compound T382, N-(3-((cyclopropylmethyl)carbamoyl)benzyl)-6-fluoro-5-(1H-pyrazol-4-yl)indoline-1-carboxamide], the pIC50 against ROCK1 kinase and against ROCK2 kinase was at least 7.30 throughout.
Consider `COc1cc(F)cc(CN(CC2COC2)C(=O)N2CCc3cc(-c4cn[nH]c4)ccc32)c1` [Compound T212], for which the pIC50 on ROCK1 kinase and against ROCK2 kinase was 5.30 to 6.30 each time.
For the compound `O=C(NCC1CC1)c1cc(F)cc(CNC(=O)N2CCc3cc(-c4cn[nH]c4)c(F)cc32)c1` [Compound T378, N-(3-((cyclopropylmethyl)carbamoyl)-5-fluorobenzyl)-6-fluoro-5-(1H-pyrazol-4-yl)indoline-1-carboxamide], the pIC50 against ROCK1 kinase and against ROCK2 kinase was at least 7.30 throughout.
Consider `O=C(NCc1ccccc1)N1CCc2cc(-c3ccncc3)ccc21` [Compound T245], for which the negative logarithm of the IC50 (pIC50) on ROCK1 kinase and against ROCK2 kinase was 6.30 to 7.30 throughout.
`CN(C)C[C@@H](NC(=O)N1CCc2cc(-c3c[nH]nc3F)c(F)cc21)c1cc(F)cc(F)c1` [Compound T366-S, (S)-N-(1-(3,5-difluorophenyl)-2-(dimethylamino)ethyl)-6-fluoro-5-(3-fluoro-1H-pyrazol-4-yl)indoline-1-carboxamide]: the pIC50 against ROCK1 kinase and on ROCK2 kinase was at least 7.30 in each case.
As to `CN1CC(COc2cc(F)cc(C(CO)NC(=O)N3CCc4cc(-c5cn[nH]c5)c(F)cc43)c2)C1` (stereo not shown) [Compound T343, 6-fluoro-N-(1-(3-fluoro-5-((1-methylazetidin-3-yl)methoxy)phenyl)-2-hydroxyethyl)-5-(1H-pyrazol-4-yl)indoline-1-carboxamide], the pIC50 on ROCK1 kinase is 5.30 to 6.30; at ROCK2 kinase it was 6.30 to 7.30.
